This note sets out measurements from ChEMBL document CHEMBL1795274, “Synthesis and antiviral activity of cyclopropyl-spirocarbocyclic adenosine, (4R,5S,6R,7R)-4-(6-amino-9H-purin-9-yl)-7-(hydroxymethyl)spiro[2.4]heptane-5,6-diol against hepatitis C virus” (Bioorg Med Chem Lett, 2011).

The nature of series [1]: Cytotoxicity against human HuH7 cells expressing E2 glycoprotein assessed as reduction of rRNA level after 5 days. The class given is cell-based, Huh-7.
The nature of series [2]: Selectivity index, ratio of CC50 for human HuH7 cells to EC50 for HCV 1a. On the set-up: species or system Huh-7.
The subject of series [3] is Hepatitis C virus. The series can be described thus: Antiviral activity against HCV1a infected in human HuH7 cells expressing E2 glycoprotein assessed as inhibition of viral RNA replication after 5 days. The class given is functional, organism-based, Hepacivirus hominis. The following applies: subtype 1a, Huh-7, 120 h.
Series [4] has as its system Influenza A virus. The series can be described thus: Antiviral activity against Influenza A virus H5N1. The class given is functional, organism-based.
Series [5] is described as follows: Selectivity index, ratio of CC50 for human HuH7 cells to EC50 for Adenovirus by neutral red assay. Type of series: toxicity, cell-based, Huh-7. Particulars: read-out: Ratio CC50/EC50.
The subject of series [6] is Venezuelan equine encephalitis virus. Put plainly: Antiviral activity against Venezuelan equine encephalitis virus. The class given is functional, organism-based.
Series [7] in a line: Selectivity index, ratio of CC50 for human HuH7 cells to EC50 for Measles virus by neutral red assay. The class given is toxicity, cell-based, Huh-7. The following applies: read-out: Ratio CC50/EC50.
A further series deals with Cowpox virus. Put plainly: Antiviral activity against Cowpox virus. The class given is functional, organism-based.
Series [8] deals with Influenza A virus. Put plainly: Antiviral activity against Influenza A virus H1N1. Type of series: functional, organism-based.
The nature of series [9]: Selectivity index, ratio of CC50 for human HuH7 cells to EC50 for HCV 1b. Further details: species or system Huh-7.
The test system of series [10] is unidentified adenovirus. Put plainly: Antiviral activity against Adenovirus infected in human HuH7 cells assessed as reduction of viral level by neutral red assay. Type of series: functional, organism-based. The following applies: Huh-7.
For series [11], the system named is Measles morbillivirus. Put plainly: Antiviral activity against Measles virus infected in human HuH7 cells assessed as reduction of viral level by visual assay. Type of series: functional, organism-based. Particulars: Huh-7.
The test system of series [12] is Influenza A virus. Put plainly: Antiviral activity against Influenza A virus H3N2. The class given is functional, organism-based.
Series [13] is described as follows: Selectivity index, ratio of CC50 for human HuH7 cells to EC50 for Adenovirus by visual assay. Type of series: toxicity, cell-based, Huh-7. The following applies: read-out: Ratio CC50/EC50.
Another series concerns Vaccinia virus. Put plainly: Antiviral activity against Vaccinia virus infected in human HuH7 cells assessed as reduction of virus-induced cytopathic-effect. Particulars: Orthopoxvirus vaccinia, Huh-7. Type of series: functional, organism-based.
For another series, the system named is Human respirovirus 3. The series can be described thus: Antiviral activity against Human parainfluenza virus 3. Type of series: functional, organism-based.
A further series relates to Human alphaherpesvirus 1. Put plainly: Antiviral activity against HSV1. The class given is functional, organism-based.
Series [14] can be described thus: Cytotoxicity against human HuH7 cells. The class given is cell-based, Huh-7.
For another series, the system named is Human alphaherpesvirus 2. The series can be described thus: Antiviral activity against HSV2. The class given is functional, organism-based.
The subject of the next series is Human alphaherpesvirus 3. Put plainly: Antiviral activity against Varicella zoster virus. Type of series: functional, organism-based.
The nature of series [15]: Selectivity index, ratio of CC50 for human HuH7 cells to EC50 for Vaccinia virus. Type of series: toxicity, cell-based, Huh-7. The following applies: read-out: Ratio CC50/EC50.
The test system of a further series is Yellow fever virus. Put plainly: Antiviral activity against Yellow fever virus. Type of series: functional, organism-based.
The subject of a further series is SARS-CoV. The series can be described thus: Antiviral activity against SARS coronavirus. Particulars: Severe acute respiratory syndrome-related coronavirus. The class given is functional, organism-based.
The next series has as its system Hepatitis B virus. Put plainly: Antiviral activity against Hepatitis B virus. The class given is functional, organism-based.
Series [16] can be described thus: Selectivity index, ratio of CC50 for human HuH7 cells to EC50 for Measles virus by visual assay. The following applies: read-out: Ratio CC50/EC50. The class given is toxicity, cell-based, Huh-7.
The next series relates to West Nile virus. The series can be described thus: Antiviral activity against West Nile virus. The class given is functional, organism-based.
In series [17] the test system is Hepatitis C virus. Put plainly: Antiviral activity against HCV1b infected in human Huh7 cells expressing E2 glycoprotein assessed as inhibition of viral RNA replication after 5 days. The class given is functional, organism-based, Hepacivirus hominis. The following applies: genotype 1b, Huh-7, 120 h.
The subject of series [18] is unidentified adenovirus. The series can be described thus: Antiviral activity against Adenovirus infected in human HuH7 cells assessed as reduction of viral level by visual assay. The class given is functional, organism-based. Particulars: Huh-7.
The test system of series [19] is Measles morbillivirus. The series can be described thus: Antiviral activity against Measles virus infected in human HuH7 cells assessed as reduction of viral level by neutral red assay. The class given is functional, organism-based. Particulars: Huh-7.
The subject of a further series is Enterovirus. The series can be described thus: Antiviral activity against Rhinovirus. The class given is functional, organism-based.

Structures are written as SMILES. Activity calls are given as the source filed them. The rule behind the calls is not given here.

One may read the CC50 as the concentration that lowers cell viability or growth by half. A word on the EC50: it is the concentration at which the effect is half-maximal. One may read the EC90 as the point of the concentration-response curve where the effect stands at 90%.

`C[C@@]1(O)[C@H](O)[C@@H](CO)O[C@H]1n1ccc(N)nc1=O`: the half-maximal cytotoxic concentration (CC50) at 120 h in [1] is above 300 µM. In series [2], the “Ratio CC50/EC50” value is reported as above 272. For the same molecule, in the series with Hepatitis C virus [3], the EC50 was found to be 1700 nM and the EC90 came to 8.2 µM.

In the case of `Nc1ncnc2c1ncn2[C@H]1[C@H](O)[C@H](O)[C@@H](CO)C12CC2`, the outcome (in the series with Influenza A virus [4]; in series [6]; in the series on Cowpox virus; in the series with Influenza A virus [8]; in the series on Influenza A virus [12]; in the series with Human respirovirus 3) was inactive. Besides, the outcome in the series with Human alphaherpesvirus 1, in the series with Human alphaherpesvirus 2, in the series on Human alphaherpesvirus 3, in the series on Yellow fever virus, in the series with SARS-CoV and in the series on Hepatitis B virus was inactive. In addition, the result with West Nile virus and in the series with Enterovirus was inactive. Moreover, the selectivity ratio in [5] was 4; in series [7] it was 5; in [13] it was 3; in [15], above 7.1; in series [16] it was 2. The figures for the “Ratio CC50/EC50” value in series [9] and in series [2] were above 272 and above 366, respectively. In addition, the EC50 is 3000 nM in the series with unidentified adenovirus [10]; 7 µM in the series on Measles morbillivirus [11]; 42.7 µM with Vaccinia virus; 368 nM with Hepatitis C virus [17]; 3000 nM with unidentified adenovirus [18]; 9 µM with Measles morbillivirus [19]. Besides, in the series with Hepatitis C virus [3], the EC50 turned out to be 273 nM. Further, the CC50 in series [14] is above 10 µM. The CC50 at 120 h in series [1] is above 100 µM. Moreover, the EC90 came out at 1200 nM in the series with Hepatitis C virus [17] and 3 µM in the series on Hepatitis C virus [3].
